Key:
[1] = Hygroscopicity; type: physicochemical
[2] = Stability of the solid on storage or heating; type: physicochemical
[3] = Particle size; type: physicochemical; details: free base obtained by this process
[4] = incubation for 6 months at 40° C.; composition produced by the Milman process (U.S. Pat. No. 5,354,885); cited from earlier work
[5] = Solubility; type: physicochemical
[6] = Stability in aqueous solution; type: physicochemical; details: pH 2-3
[7] = cited from earlier work
[8] = cited from earlier work; remark: listed apart in the source
[9] = synthesized by the methods of GB 1,364,505 / U.S. Pat. No. 3,803,120
[10] = free base obtained by this process

hygroscopicity [1, 9]	stability [2, 9]	hygroscopicity [1, 10]	average particle size [3]	particle size range [3]	stability [2, 10]	sensitivity to heat ([2]; produces cyclic levodopa and levodopa-levodopa ethyl ester)	solubility in water [5]	stability in the solution [6]	Structure (SMILES)	L-DOPA ethyl ester remaining after incubation [4]	solubility [7]	half-life in vivo [8]
hygroscopic	not stable								CCOC(=O)[C@@H](N)Cc1ccc(O)c(O)c1.Cl [L-DOPA ethyl ester hydrochloride salt, L-DOPA ethyl ester hydrochloride, reference compound]			
	not stable	non-hygroscopic	less than 60 μ	18-180 μ	stable	very sensitive to heat	soluble to a certain extent	stable	CCOC(=O)[C@@H](N)Cc1ccc(O)c(O)c1 [L-DOPA ethyl ester]	at least 97 % by weight		
									N[C@@H](Cc1ccc(O)c(O)c1)C(=O)O [L-DOPA]		very poor solubility	short half-life
